Data as given in patent publication US20100184047A1, “SCREENING AND THERAPEUTIC METHOD FOR NSCLC TARGETING THE CDCA8-AURKB COMPLEX” (ONCOTHERAPY SCIENCE, INC., priority 2007, published 2010).
“Also recorded” adds a separate entry of the source.

Columns and labels:
Assay type in all cases: cell-based, human
[1] = system: CDCA8; test: Western blot of endogenous CDCA8 protein after AURKB knock-down; conditions: LC319 cells
Procedure: (§1) Cells were lysed in lysis buffer; 50 mM Tris-HCl (pH 8.0), 150 mM NaCl, 0.5% NP-40, 0.5% deoxycholate-Na, 0.1% SDS, plus protease inhibitor (Protease Inhibitor Cocktail Set III; Calbiochem Darmstadt, Germany). An ECL western-blot analysis system was used (GE Healthcare Bio-sciences, Piscataway, N.J.), as previously described (Kato T, et al., Cancer Res. 2005 Jul. 1; 65(13):5638-46; Furukawa C, et al., Cancer Res. 2005 Aug. 15; 65(16):7102-10).
(§2) A vector-based RNA interference (RNAi) system, psiH1BX3.0, which was designed to synthesize siRNAs in mammalian cells was previously established (Suzuki C, et al., Cancer Res. 2003 Nov. 1; 63(21):7038-41; Kato T, et al., Cancer Res. 2005 Jul. 1; 65(13):5638-46; Furukawa C, et al., Cancer Res. 2005 Aug. 15; 65(16):7102-10; Suzuki C, et al., Cancer Res. 2005 Dec. 15; 65(24):11314-25. Ishikawa N, et al., Cancer Sci. 2006 August; 97(8):737-45; Takahashi K, et al., Cancer Res. 2006 Oct. 1; 66(19):9408-19; Hayama S, et al., Cancer Res. 2006 Nov. 1; 66(21):10339-48). 10 micrograms of siRNA-expression vector was transfected using 30 microliters of Lipofectamine 2000 (Invitrogen) into lung-cancer cell lines, LC319 and SBC-5. The transfected cells were cultured for seven days in the presence of appropriate concentrations of geneticin (G418), and the number of colonies was counted by Giemsa staining, and viability of cells was evaluated by MTT assay (cell-counting kit-8 solution; DOJINDO, Kumamoto, Japan), at 7 days after the G418 treatment. To confirm suppression of CDCA8 protein expression, western blotting was carried out with affinity-purified polyclonal antibody to CDCA8 according to the standard protocol. The target sequences of the synthetic oligonucleotides for RNAi were as follows:
Furthermore, to inhibit the AURKB activity in mammalian cells, siRNA oligos were constructed against AURKB (si-AURKB-#1 and -#2), as well as control siRNA oligos for EGFP. The target sequences of the synthetic oligonucleotides for RNAi were as follows:
(§3) Cells seeded onto 10 cm-dishes were incubated in mixtures of both Lipofectamine (Invitrogen) and control 3 (5′-GAAGCAGCACGACUUCUUC-3′ (SEQ ID NO: 61)) or si-AURKBs (#1: 5′-CCAAACUGCUCAGGCAUAA-3′ (SEQ ID NO: 62);
(§4) #2: 5′-ACGCGGCACUUCACAAUUG-3′ (SEQ ID NO: 63)) in a final concentration of 100 nM. At 4 hours after transfection, the siRNA-lipofectamine mixtures were replaced with fresh media. The cells were collected and analyzed after additional 72-hour culture.

[2] = system: AURKB; test: AURKB knock-down by siRNA against AURKB, western blot; conditions: LC319 cells
Procedure: as §1, §2
Furthermore, to inhibit the AURKB activity in mammalian cells, siRNA oligos were constructed against AURKB (si-AURKB-#1 and -#2), as well as control siRNA oligos for EGFP. […]
#2: 5′-ACGCGGCACUUCACAAUUG-3′ (SEQ ID NO: 63)) in a final concentration of 100 nM. […] The cells were collected and analyzed after additional 72-hour culture.

[3] = system: CDCA8 transcripts; test: Semi-quantitative RT-PCR of CDCA8 transcript after AURKB knock-down; conditions: LC319 cells
Procedure: Total RNA was extracted from cultured cells and clinical tissues using Trizol reagent (Life Technologies, Inc., Gaithersburg, Md.) according to the manufacturer's protocol. Extracted RNAs and normal human tissue poly(A) RNAs were treated with DNase I (Nippon Gene, Tokyo, Japan) and reversely-transcribed using oligo (dT) primer and SuperScript II reverse transcriptase (Invitrogen, Carlsbad, Calif.). Semi-quantitative RT-PCR experiments were carried out with the following synthesized CDCA8-specific primers, AURKB-specific primers, E2F-1-specific primers, or with beta-actin (ACTB)-specific primers as an internal control:
as §3, §4

[4] = system: SBC-5 cells; test: Colony formation assay after siRNA-expression vector transfection; conditions: Giemsa staining, vs control siRNAs
From the text: as §2, with “follows: […]” for “follows:”

[5] = system: LC319 cells; test: as above; conditions: Giemsa staining, vs control siRNAs
From the text: as §2, with “follows: […]” for “follows:”

[6] = system: CDCA8; test: RNA interference with si-CDCA8 vectors, western blot of CDCA8 protein; conditions: in comparison with two control siRNAs (EGFP, Luciferase)
Procedure: as §1
as §2, with “follows: […]” for “follows:”

[7] = system: SBC-5 cells; test: MTT assay after siRNA-expression vector transfection; conditions: 7 days after G418 treatment, vs control siRNAs
From the text: as §2, with “follows: […]” for “follows:”

[8] = system: LC319 cells; test: as above; conditions: 7 days after G418 treatment, vs control siRNAs
From the text: as §2, with “follows: […]” for “follows:”

Substance	amount of CDCA8 protein [1]	AURKB expression / AURKB protein [2]	level of CDCA8 transcripts [3]	colony numbers (colony-formation assay) [4]	colony numbers (colony-formation assay) [5]	expression of endogenous CDCA8 proteins ([6]; LC319 cells)	expression of endogenous CDCA8 proteins ([6]; SBC-5 cells)	cell viability (MTT assay) [7]	cell viability (MTT assay) [8]	phosphorylation levels of CDCA8 [1]
5′-ACGCGGCACUUCACAAUUG-3′ (listed as RNA, chemistry not given here) [si-AURKB-#2]	dramatically decreased	Reduction	not influenced	–	–	–	–	–	–	–
5′-CAGCAGAAGCTATTCAGAC-3′ (CAGCAGAAGCTATTCAGACTTCAAGAGAGTCTGAATAGCTTCTGCTG; expressed or natural sequence) [si-CDCA8-#1]	–	–	–	significant decreases	significant decreases	significantly suppressed	significantly suppressed	significant decreases	significant decreases	–
5′-CCAAACUGCUCAGGCAUAA-3′ (listed as RNA, chemistry not given here) [si-AURKB-#1]	dramatically decreased	Reduction	not influenced	–	–	–	–	–	–	–
5′-GCCGTGCTAACACTGTTAC-3′ (GCCGTGCTAACACTGTTACTTCAAGAGAGTAACAGTGTTAGCACGGC; expressed or natural sequence) [si-CDCA8-#2]	–	–	–	significant decreases	significant decreases	significantly suppressed	significantly suppressed	significant decreases	significant decreases	–
5′-GGTGATTCACAGAGACATA-3′ (GGTGATTCACAGAGACATATTCAAGAGATATGTCTCTGTGAATCACC; expressed or natural sequence) [si-AURKB]	decreased	selectively knocked down; also recorded: Reduction	not influenced	–	–	–	–	–	–	decreased
